We go through 19 compounds from ChEMBL document CHEMBL3045368, “Design, synthesis, and biological activities of novel 2-cyanoacrylates containing oxazole, oxadiazole, or quinoline moieties” (2009).

Holding throughout (format): functional
The test system of assay [1] is Brassica napus. Kind of assay: Herbicidal activity against Brassica napus (oilseed rape) assessed as inhibition of herb growth at 1.5 kg/ha during preemergence treatment protocol. The note with it: pre-emergence, read-out: GI.
Assay [2] concerns Amaranthus retroflexus. Kind of assay: Herbicidal activity against Amaranthus retroflexus assessed as inhibition of herb growth at 1.5 kg/ha during preemergence treatment protocol. As to conditions: pre-emergence, read-out: GI.
Assay [3] relates to Digitaria sanguinalis. Kind of assay: Herbicidal activity against hairy Digitaria sanguinalis (hairy crabgrass) assessed as inhibition of herb growth at 1.5 kg/ha during postemergence treatment protocol. The note with it: post-emergence, read-out: GI.
Assay [4] has as its system Medicago sativa. Kind of assay: Herbicidal activity against Medicago sativa (alfalfa) assessed as inhibition of herb growth at 1.5 kg/ha during postemergence treatment protocol. The note with it: post-emergence, read-out: GI.
Assay [5] concerns Brassica napus. Kind of assay: Herbicidal activity against Brassica napus (oilseed rape) assessed as inhibition of herb growth at 1.5 kg/ha during postemergence treatment protocol. The note with it: post-emergence, read-out: GI.
Assay [6] has as its system Amaranthus retroflexus. The assay can be described thus: Herbicidal activity against Amaranthus retroflexus assessed as inhibition of herb growth at 1.5 kg/ha during postemergence treatment protocol. The note with it: post-emergence, read-out: GI.
Assay [7] concerns Cucumis sativus. The assay can be described thus: Plant growth regulatory activity in Cucumis sativus (cucumber) seeds assessed as stimulation of radicle growth level at 10 mg/mL.
For assay [8], the system named is Digitaria sanguinalis. Kind of assay: Herbicidal activity against hairy Digitaria sanguinalis (hairy crabgrass) assessed as inhibition of herb growth at 1.5 kg/ha during preemergence treatment protocol. As to conditions: pre-emergence, read-out: GI.
Assay [9] deals with Medicago sativa. Kind of assay: Herbicidal activity against Medicago sativa (alfalfa) assessed as inhibition of herb growth at 1.5 kg/ha during preemergence treatment protocol. As to conditions: pre-emergence, read-out: GI.

With `CCOCCOC(=O)/C(C#N)=C(\NCc1coc(-c2cccc(Cl)c2)n1)SC`, the inhibition of growth at 1500 g/ha in [1] was found to be 0%; in [2], 0%; in assay [3], 6.5%; in assay [4], 0%; in assay [5] it was 25.4%; in assay [6], 0%. For the same compound, the results for the inhibition of growth at 1500 g/ha in assay [8] and in assay [9] were 0% and 10%, respectively. In assay [7], the Activity stood at 80%.
For the compound `CCOCCOC(=O)/C(C#N)=C(\NCc1ccc2ncccc2c1)C(C)C`, the inhibition of growth at 1500 g/ha amounted to 0% in assay [1]; 0% in assay [2]; 0% in [3]; 10% in assay [4]; 73.7% in assay [5]; 0% in assay [6]. The inhibition of growth at 1500 g/ha in [8] and in assay [9] was 0% in each case. The Activity in [7] is 85%.
On to `CCOCCOC(=O)/C(C#N)=C(\NCc1nc(-c2ccc(F)cc2)no1)C(C)C`, for which the inhibition of growth at 1500 g/ha in assay [1] turned out to be 88%; in assay [2] it was 0%; in [3] it was 82.5%; in assay [4], 10%; in [5], 100%; in [6], 100%. The inhibition of growth at 1500 g/ha in [8] and in assay [9] was 0% each time.
As for `CCOCCOC(=O)/C(C#N)=C(\NCc1coc(-c2ccccc2)n1)C(C)C`, the inhibition of growth at 1500 g/ha amounted to 0% in assay [1]; 10% in [2]; 87% in assay [3]; 0% in [4]; 87.3% in [5]; 71.4% in assay [6]. The inhibition of growth at 1500 g/ha in assay [8] is 5%; in assay [9] it was 0%. Also, the Activity in assay [7] came to 60%.
Consider `CCOCCOC(=O)/C(C#N)=C(/CC)NCc1nc(-c2ccc(F)cc2)no1`, for which the inhibition of growth at 1500 g/ha came out at 15% in assay [1]; 0% in [2]; 0% in [3]; 0% in assay [4]; 0% in assay [5]; 0% in assay [6]. In addition, the inhibition of growth at 1500 g/ha in assay [8] and in [9] was 0% throughout.
For the compound `CCOCCOC(=O)/C(C#N)=C(\NCc1nc(-c2ccc(C(F)(F)F)cc2)no1)SC`, the inhibition of growth at 1500 g/ha was 0% in [1]; 0% in assay [2]; 37.5% in assay [3]; 0% in assay [4]; 100% in assay [5]; 0% in assay [6]. Besides, the inhibition of growth at 1500 g/ha in [8] and in [9] was 0% throughout.
As to `CCOCCOC(=O)/C(C#N)=C(\NCc1ncc(C(C)C)o1)C(C)C`, the inhibition of growth at 1500 g/ha in assay [1] is 52.7%; in [2] it was 0%; in assay [3], 10%; in assay [4], 15%; in [5], 100%; in assay [6], 80.5%. The inhibition of growth at 1500 g/ha in [8] and in assay [9] was 0% in each case. Moreover, the Activity in assay [7] was determined as 98.2%.
For the compound `CCOCCOC(=O)/C(C#N)=C(\NCc1cnc2ccccc2c1)C(C)C`, the inhibition of growth at 1500 g/ha in assay [1] stood at 18.2%; in [2], 41.9%; in [3] it was 45.5%; in assay [4], 0%; in assay [5] it was 100%; in assay [6] it was 100%. In addition, the inhibition of growth at 1500 g/ha in [8] and in assay [9] was 0% throughout. Further, in [7], the Activity was 85%.
Turning to `CCOCCOC(=O)/C(C#N)=C(\NCc1nc(-c2ccc(F)cc2)no1)SC`, the inhibition of growth at 1500 g/ha is 10% in [1]; 0% in assay [2]; 10% in assay [3]; 0% in assay [4]; 15% in [5]; 0% in assay [6]. Besides, the inhibition of growth at 1500 g/ha in assay [8] and in [9] was 0% each time.
For the compound `CCOCCOC(=O)/C(C#N)=C(\NCc1ccc2ccccc2n1)C(C)C`, the inhibition of growth at 1500 g/ha stood at 0% in assay [1]; 0% in assay [2]; 50.6% in assay [3]; 0% in [4]; 72% in assay [5]; 77.8% in assay [6]. Moreover, the inhibition of growth at 1500 g/ha in [8] and in assay [9] was 0% each time. For the same compound, the Activity in assay [7] was found to be 115%.
For the compound `CCOCCOC(=O)/C(C#N)=C(\NCc1nc(-c2ccc(C(F)(F)F)cc2)no1)C(C)C`, the inhibition of growth at 1500 g/ha was 48.4% in assay [1]; 50.3% in assay [2]; 57.5% in assay [3]; 43.2% in [4]; 100% in assay [5]; 100% in [6]. The inhibition of growth at 1500 g/ha in assay [8] stood at 10%; in assay [9], 0%.
On to `CCOCCOC(=O)/C(C#N)=C(\NCc1ccc2ccccc2n1)SC`, for which the inhibition of growth at 1500 g/ha in [1] is 0%; in [2], 0%; in assay [3] it was 0%; in [4], 15%; in assay [5], 35.6%; in assay [6], 0%. The inhibition of growth at 1500 g/ha in assay [8] and in assay [9] was 0% in each case. The Activity in assay [7] is 60%.
Regarding `CCOCCOC(=O)/C(C#N)=C(\NCc1cnc2ccccc2c1)SC`, the inhibition of growth at 1500 g/ha came out at 74.9% in [1]; 35.5% in assay [2]; 48.1% in [3]; 67.8% in assay [4]; 100% in [5]; 100% in assay [6]. In addition, the inhibition of growth at 1500 g/ha came out at 0% in assay [8] and 10% in [9]. Further, the Activity in assay [7] stood at 110%.
As to `CCOCCOC(=O)/C(C#N)=C(\NCc1coc(-c2ccccc2)n1)SC`, the inhibition of growth at 1500 g/ha was found to be 5% in assay [1]; 5% in [2]; 0% in assay [3]; 0% in [4]; 34.7% in [5]; 0% in [6]. The inhibition of growth at 1500 g/ha is 0% in [8] and 5% in assay [9]. The Activity in assay [7] was 50%.
In the case of `CCOCCOC(=O)/C(C#N)=C(\NCc1ccc2ncccc2c1)SC`, the inhibition of growth at 1500 g/ha in assay [1] stood at 10%; in assay [2], 0%; in assay [3], 66.2%; in [4], 0%; in [5], 100%; in assay [6] it was 100%. Further, the values for the inhibition of growth at 1500 g/ha in assay [8] and in assay [9] were 10% and 0%, respectively. In assay [7], the Activity was 145%.
Regarding `CCOCCOC(=O)/C(C#N)=C(\NCc1coc(-c2cccc(Cl)c2)n1)C(C)C`, the inhibition of growth at 1500 g/ha in [1] amounted to 15%; in assay [2], 0%; in assay [3], 0%; in assay [4], 0%; in assay [5] it was 80.5%; in assay [6] it was 84.1%. Also, the inhibition of growth at 1500 g/ha in assay [8] was found to be 0%; in assay [9] it was 5%.
In the case of `CCOCCOC(=O)/C(C#N)=C(\NCc1ncc(C(C)C)o1)SC`, the inhibition of growth at 1500 g/ha was 10% in [1]; 5% in assay [2]; 0% in assay [3]; 0% in assay [4]; 5% in assay [5]; 26.8% in [6]. Moreover, the inhibition of growth at 1500 g/ha in assay [8] and in assay [9] was 0% in each case. In addition, the Activity in [7] is on record as 63.7%.
Take `CCOCCOC(=O)/C(C#N)=C(\NCc1ncc(C)o1)SC`: the inhibition of growth at 1500 g/ha in assay [1] is 0%; in [2], 43.9%; in [3], 10%; in assay [4], 0%; in [5] it was 10%; in [6], 100%. Also, the inhibition of growth at 1500 g/ha in assay [8] and in assay [9] was 0% throughout.
Consider `CCOCCOC(=O)/C(C#N)=C(/CC)NCc1ccc2ccccc2n1`, for which the inhibition of growth at 1500 g/ha is 0% in [1]; 20% in assay [2]; 0% in assay [3]; 0% in [4]; 8.5% in assay [5]; 0% in assay [6]. Moreover, the inhibition of growth at 1500 g/ha in assay [8] and in assay [9] was 0% each time. The Activity in [7] was determined as 95.4%.
